Source: patent publication US20240050564A1, “COMBINATION THERAPY USING AN ANTI-FUCOSYL-GM1 ANTIBODY” (BRISTOL-MYERS SQUIBB COMPANY, priority 2021, published 2024)

What was measured:
[1] = Binding to closely related molecule GM1
Source text: (§1) BMS-986012 is a first-in-class fully human monoclonal antibody (mAb) that specifically binds to the fucosyl-GM1 ganglioside. […] Because fucosyl-GM1 is preferentially found on the surface of lung cancer cells, BMS-986012 is particularly well suited to treating lung cancer, such as small cell lung cancer (SCLC).

[2] = non-fucosylated, compared to an antibody with typical mammalian glycosylation; cited from earlier work
[3] = Binding of BMS-986012 to fucosyl-GM1
Source text: as §1

Fc receptors = conditions: non-fucosylated Fc domain; cited from earlier work
DMS79 cells [4] = assay: DMS-79 SCLC tumor model in mice, anti-fucosyl-GM1 and etoposide (Example 2); assay type: in vivo; conditions: BMS-986012 3 mg/kg i.p. days 7, 11, 15, 18, 21; etoposide 15 mg/kg i.p. days 7, 9, 11 (alone with isotype control antibody)
Procedure: Median tumor volumes are presented for groups of 8 mice at each data point. See Example 2.
(§2) A combination therapy method of the present invention involving antibody to fucosyl-GM1 and cisplatin was tested in the DMS-79 SCLC tumor model in mice ([…] mice per group). Bepler et al. (1989) Oncogene 4:45; Pettengill (1980) Cancer 45: 906; Pettengill et al. (1980) Exp. Cell Biol. 48:279. Briefly, DMS79 cells were cultured in RPMI with 10% fetal bovine serum (FBS), 2 mM L-glutamine, […] sodium bicarbonate, 4.5 g/L glucose, 10 mM HEPES, and 10 μM NaPyr prior to subcutaneous implantation in the right flanks of male C.B17 SCID mice (5 million cells in 0.1 mL phosphate-buffered saline (PBS) and 0.1 mL […]® gelatinous protein mixture per flank). When tumors reached a mean or median size of 80-155 mm^3 estimated by L×W×H/2 using a digital calipers, mice were randomized into treatment groups (N=8 mice per group).
A combination therapy method of the present invention involving antibody to fucosyl-GM1 and etoposide was tested in the DMS-79 SCLC tumor model in mice (N=9 mice per group), essentially as described in Example 1. Anti-fucosyl-GM1 antibody BMS-986012 was administered at 3 mg/kg i.p. to mice on days 7, 11, 15, 18 and 21 post-implantation, and etoposide was administered at 15 mg/kg i.p. on days 7, 9 and 11. […]

DMS79 cells [5] = assay: DMS-79 SCLC tumor model in mice, anti-fucosyl-GM1 and cisplatin (Example 1); assay type: in vivo, male C.B17 SCID mice; conditions: BMS-986012 0.3 mg/kg i.p. days 7, 10, 13, 17, 21; cisplatin 3 mg/kg days 7, 14, 21, 28 (alone with isotype control antibody)
Procedure: Median tumor volumes are presented for groups of 8 mice at each data point. See Example 1.
as §2
Anti-fucosyl-GM1 antibody BMS-986012 was administered at 0.3 mg/kg i.p. to mice on days 7, 10, 13, 17 and 21 post implantation, and cisplatin was administered at 3 mg/kg on days 7, 14, 21 and 28. Because fucosyl-GM1 is a ganglioside rather than a protein, and is the same in mice as in humans, there was no need to use a “mouse surrogate” for mouse studies. Cisplatin was administered in combination with BMS-986012 and with an isotype control antibody at 3 mg/kg as a control. […]

[6] = system: small cell lung cancer (SCLC); conditions: nivolumab monotherapy, 147 patients; cited from earlier work

## BMS-986012: anti-fucosyl-GM1 mAb comprising heavy chains of SEQ ID NO: 3 and light chains of SEQ ID NO: 4
[1]
  antigen-specific binding to GM1: no detectable antigen-specific binding
[2]
  antibody-dependent cellular cytotoxicity (ADCC): enhanced
[3]
  binding to fucosyl-GM1: high-affinity and dose-dependent saturable binding
Fc receptors
  affinity for Fc receptors: higher affinity
DMS79 cells [4]
  tumor growth (median tumor volume, FIG. 2): somewhat effective as monotherapy to reduce tumor growth
DMS79 cells [5]
  tumor growth (median tumor volume, FIG. 1): effective as monotherapy to reduce tumor growth

## COc1cc([C@@H]2c3cc4c(cc3[C@@H](O[C@@H]3O[C@@H]5CO[C@@H](C)O[C@H]5[C@H](O)[C@H]3O)[C@H]3COC(=O)[C@H]23)OCO4)cc(OC)c1O [etoposide, reference compound]
DMS79 cells [4]
  tumor growth (median tumor volume, FIG. 2): somewhat effective as monotherapy to reduce tumor growth

## N.N.[Cl][Pt][Cl] [cisplatin, reference compound]
DMS79 cells [5]
  tumor growth (median tumor volume, FIG. 1): effective as monotherapy to reduce tumor growth

## nivolumab: anti-PD-1 mAb comprising heavy chains of SEQ ID NO: 13 and light chains of SEQ ID NO: 14
[6]
  published ORR: 12%
  published disease control rate: 29%
